SMILES strings stand for the structures. Where two headings read alike, the source gives them in different places. Bounds are passed on as bounds.

IC50 data for 6 compounds are collected here from patent publication US5708000A, “N4-substituted cytosinyl 1,3-oxathiolane nucleoside analogues, and their antiviral activity” (Laboratoire Laphal, priority 1994, dated 1998).

The subject of test [1] is HIV-1 virus (BRU) in MT4 cells. Description: Anti-HIV test: inhibition of HIV-1 replication (syncitia formation) in infected MT4 cells. It counts as cell-based. The source says:
The evaluation of the antiviral action is based on the study of cytopathogenic effect of HIV-1 Virus on the cell line MT4. The cell line MT4 has as an origin T cells isolated from a patient, transformed by the […]. The cytopathogenic effect of HIV-1 virus is shown by the formation of multinucleated giant cells called <> visible under the microscope. This effect of HIV-1 is observed 4 to 5 days after infection. It is followed with the death of cells.
The cytopathogenic effect is directly correlated to the infection of the cells by the virus, to its intracellular replication and to the expression of viral antigens by the cells. An inhibition of this effect thus corresponds to an inhibition of the multiplication of HIV-1 virus.
The MT4 cells are maintained at 3.10^5 cells/ml in a RPMI 1640 medium : 10% of decomplemented fetal calf serum for 30 mn at 56° C. (hormons, serum growth factors . . . ), 1% glutamine, 1% penicillin streptomycin and 2 μg/ml Polyren which promotes the viral adhesion to the cells.
The action of the treatment by the anti-viral agent is continuous. In fact this effect is present before during and after the viral infection. Successive dilutions are performed in the 10% fetal calf serum to be able to cultivate the MT4 cells for 8 days and to observe the formation of syncithias.
Before infection : 3×10^6 cells/100 μl are distributed in a microtiter plate with 96 wells and centrifugated for 3 min. at 2000 rpm (rounds per minute). The pellet is then pre-incubated for 1 hour at 37° C., with 100 μl of various concentrations of the anti-viral agent to be tested.
Infection : The infection is achieved in microwells while adding 100 TCIU (infection units) of HIV-1 virus (this titer of HIV-1 virus is determined as to induce the formation of syncithias in 4 or 5 days). The anti-viral agent is always present at the time of infection and dilution of the virus at 100 TCIU.
After infection : After incubation for 1 hour at 37° C., the MT4 cells are washed three times with RPMI 1640 medium and cultured on account of 3.10^5 cells per milliliter of each of the concentration of the compounds to be tested on plates of 24 wells. When passing at day D3 the MT4 cells are diluted to 1/3. The concentration of the anti-viral agent is maintained. Each day occurrence of syncithia is observed under the microscope to detect any optional delay with respect to the controls HIV-1. At day D8 the determination of reverse transcriptase is carried out. When the cells are not infected thus it is a protection by the tested anti-viral agent.
The compounds the synthesis of which has been described in this patent application and the related structures given in the previous prior art, have an affect on the inhibition of the replication of BRU HIV-1 virus (BRU beeing the vital strain experienced) in the case where the infected cells are of the type MT4.
In the table I they have been described the results of the tests. Column 1 provides the names of the most representative studied compounds and in column 2 they are reported the so-called IC50 values (concentration of the component giving a 50% inhibition of the replication of HIV in the infected MT4 cells, measured at day D7 after infection). In observing and counting the number of formed syncitia in relation with that counted in the case of infected MT4 cells but untreated with antiviral compound, the value IC50 is determined.

For test [2], the system named is duck hepatitis B virus (DHBV). The test is described as follows: Anti-HBV test: effect on the replication of the duck hepatitis B virus (DHBV) in infected duck hepatocytes (viral DNA). It counts as cell-based. Conditions: Hepatocyte, 240 h, read-out: IC50, inhibition of the replication of DHBV virus. The source says: Among the several methodologies used for evaluating the activity of compounds on Hepatitis B virus (HBV), the pattern of Hepatitis B virus of the duck (Duck HBV) has been utilized (J. Med. Virology (1990) 31 82-89; Viral Hepatitis and Liver disease (1988) 506-509; Hepatology (1989) 10 186-191). The material of culture to test <<in vitro>> the anti HBV activity of the compounds is made of duck hepatocytes infected by the duck Hepatitis B virus (DHBV) (Antimicrob. Agents Chemother. (1989) 33 336-339; J. Med. Virology 40,59-64; Antivir Res. (1993) 21, 155-171; Antimicrob. Agents Chemother. (1993) 37 1539-1542). Indeed the Hepatitis B virus of the duck is recognized as being very close to the human hepatitis B virus (Viral Hepatitis and Liver Disease (1988) 526-529. Antiviral Research (1987) 8189-199). Under standardized conditions (Virology (1989) 171 564-572) the cultures of duck hepatocytes allow the complete replication of DHBV. The antiviral activity of the tested compounds has been measured as a function of the amount of viral DNA produced during 10 days of culture of the infected hepatocytes.
A young male duck 3 weeks old, affected by DHBV, is used for the production of hepatocytes. The duck is killed under anesthesia and the isolation of hepatocytes is carried out using the methodology of Guillouzou (Research in isolated and cultured hepatocytes, J. Libbey Eurotex Ltd / INSERM, 1986). The cells are cultured in the Leibowitz's medium and 5 μg/ml bovine insuline, 7×10^-5 mole cortisone hemisuccinate and 1,5% dimethylsulfoxide (DMSO) are added thereto. The density of the cells is 8×10^6 cells, they are sprayed in culture boxes of 100×20 mm. The tested compounds are added to the culture after the spread out of the cells. The medium is renewed every day, during 10 days. The production of viral DNA of the duck hepatitis B virus in the cells surpernatant is determined by means of hybridation method "Dot blot" according to Fourel and al. (Viral Hepatitis and Liver Disease, 1988, 506-509; Hepatology, 1989, 10, 186-191). Inhibition is expressed as a percentage of the DNA amount present on the supernatant of cells with regard to a culture infected by DHBV untreated with a nucleosidic derivative.
The most representative described compounds have been tested for their effect on the replication of the duck virus HBV (DHBV) along the protocol exposed in the experimental part of this document.

Where [3] appears, read: Human immunodeficiency virus 1, BRU HIV-1, MT4 cells, syncitia count, day D7 after infection, read-out: IC50 (concentration giving a 50% inhibition of the replication of HIV in the infected MT4 cells).
The mark [4] stands for this setting: duck hepatocytes infected by DHBV, viral DNA in supernatant, dot blot, 10 days of culture.

In the case of `O=C(Nc1ccn([C@@H]2CS[C@H](CO)O2)c(=O)n1)c1cccnc1Nc1cccc(C(F)(F)F)c1` (relative stereo) [Compound 11, cis 2-hydroxymethyl-5-[N^4-(2-(a,a,a-trifluoro-m-toluidino)nicotinyl)-cytosin-1'yl]-1,3-oxathiolane], the IC50 in test [1] (setting [3]) was below 100000 nM.

Take `C[n+]1cc(C(=O)Nc2ccn([C@@H]3CS[C@H](CO)O3)c(=O)n2)cc2ccccc21` (relative stereo) [Compound 9, cis 2-hydroxymethyl 5-[N^4-(1"-methyl 3"-quinolinyicarbonyl)cytosin-1'yl]-1,3-oxathiolane]: the IC50 is above 100000 nM in test [1] (Human immunodeficiency virus 1, MT4, read-out: IC50 (concentration giving a 50% inhibition of the replication of HIV in the infected MT4 cells)) and 2000 nM in test [2].

With `Nc1ccn([C@H]2CS[C@@H](CO)O2)c(=O)n1` [BCH-189, 2',3'-dideoxy 3'-thiacytidine, reference compound], the IC50 in test [1] (setting [3]) was 1000 nM; in test [2] (setting [4]), 1000 ± 500 nM.

On to `O=C(Nc1ccn([C@@H]2CS[C@H](CO)O2)c(=O)n1)c1cccnc1` (relative stereo) [Compound 2, Cis 2-(hydroxymethyl)-5 [N^4-(3"-pyridinylcarbonyl)cytosin-1'-yl]-1,3-oxathiolan], for which the IC50 is 100 to 1000 nM in test [1] (setting [3]) and 2000 ± 500 nM in test [2] (setting [4]).

Regarding `O=C(Nc1ccn([C@@H]2CS[C@H](CO)O2)c(=O)n1)c1cnc2ccccc2c1` (relative stereo) [Compound 8], the IC50 in test [1] (setting [3]) was found to be 10000 nM; in test [2] (setting [4]) it was 2000 nM.

With `CN1C=C(C(=O)Nc2ccn([C@@H]3CS[C@H](CO)O3)c(=O)n2)Cc2ccccc21` (relative stereo) [Compound 10, cis 2-hydroxymethyl 5-[N^4-(1"-methyl 1", 4"-dihydro 3"-quinolinylcarbonyl)cytosin-1'yl]-1,3-oxathiolane], the IC50 in test [1] (setting [3]) is 1000 to 10000 nM; in test [2] (setting [4]), 2000 nM.
